According to US20230365595A1, “INHIBITORS OF KRAS(G12D)” (Ranok Therapeutics (Hangzhou) Co. Ltd., priority 2022, published 2023):

Key:
A427 cells = experiment: CellTiter-Glo cell cytotoxicity, A427; format: cell-based; conditions: A-427, 72 h, A427 human lung carcinoma, 1 copy of KRAS(G12D), read-out: A427 72H CTG
Procedure: (§1) The following cancer cell lines were employed: A427 human lung carcinoma [1 copy of KRAS(G12D)] (ATCC, #HTB-53); AGS human gastric adenocarcinoma [1 copy of KRAS(G12D)] (ATCC, #CRL-1739); and AsPC-1 human adenocarcinoma [2 copies of KRAS(G12D)] (ATCC, CRL-1682). Cell lines were cultured essentially according to American Type Culture Collection (ATCC) recommendations.
A427 and AGS cells were plated in 96-well tissue culture plates at 4,000 cells/well and incubated at 37° C/5% CO2 for 72 hr in 100 μl of media. 3-fold serial dilutions of each test compound were prepared ranging from 20 μM to 1.02 nM. Each cell line was then treated with test compounds at various concentrations with a final concentration of 0.5%
(§2) […] 100 Ill of CellTiter-Glo® Reagent (Promega Corporation, Madison, WI) was added to each well and processed according manufacturer's protocol. Results were analyzed and IC50 values were calculated in GraphPad 7 software.

AGS cells = experiment: CellTiter-Glo cell cytotoxicity, AGS; format: cell-based; conditions: AGS human gastric adenocarcinoma, 1 copy of KRAS(G12D), read-out: AGS 72H CTG
Procedure: as §1
A427 and AGS cells were plated in 96-well tissue culture plates at 4,000 cells/well and incubated at 37° C/5% CO2 for 72 hr in 100 μl of media. 3-fold serial dilutions of each test compound were prepared ranging from 20 μM to 1.02 nM. […]
as §2

KRAS(G12D)-SOS1 = target: T1, KRAS(G12D)-SOS1 (Homo sapiens, UniProt P01116, G12D); experiment: KRAS(G12D)/SOS1 HTRF binding assay; conditions: absence of GTP; 4° C. for 3 hr
T1 construct: purchased Cisbio 63ADK000CB16PEG
T1 sequence (P01116 1-188 isoform P01116-2 G12D): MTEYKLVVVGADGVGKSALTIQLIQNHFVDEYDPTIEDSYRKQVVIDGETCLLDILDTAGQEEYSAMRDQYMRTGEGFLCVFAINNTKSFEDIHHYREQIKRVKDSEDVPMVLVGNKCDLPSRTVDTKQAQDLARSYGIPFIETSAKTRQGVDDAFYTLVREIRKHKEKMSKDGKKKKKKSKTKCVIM
Procedure: Binding of test compounds to KRAS(G12D) target protein, which in turn blocks KRAS(G12D) interaction with the SOS1 protein, was measured in the absences of GTP by homogeneous time-resolved fluorescence using the KRAS-G12D/SOS1 Binding Assay Kit (Cisbio, #63ADK000CB16PEG), following the manufacturer's instructions, except as noted. 3-fold serial dilutions of each test compound were prepared ranging from 20 μM to 1.02 nM. The test compound was mixed and incubated with reaction components, incubated in a sealed plate at 4° C. for 3 hr and fluorescence was measured using a PerkinElmer Envision plate reader. The KRAS(G12D)-SOS1 IC50 values (the concentration of 50% of the maximal inhibition) were calculated using GraphPad Prism 7 software.

[1] = Oral bioavailability in CD-1 mice; conditions: male, CD-1, mouse, blood, 50 mg/kg
Procedure: (§3) CD-1 mice were randomly assigned to δgroups with 3 male mice in each compound group. […] Compounds were orally administered (PO) in a single dose to each mouse in its group. Blood samples were taken within 72 hours. Bioavailability (F%) was determined and by liquid chromatography-mass spectrometry (LC-MS/MS).

in vivo = conditions: male, CD-1, mouse, po, 50 mg/kg
Procedure: as §3

Which results are given for `C#Cc1c(F)ccc2cc(O)cc(-c3ncc4c(N5CC6CCC(C5)N6)nc(OCC5(CN6CCC(F)CC6)CC5)nc4c3F)c12` [drawing 111]?
IC50 (A427 cells): 1 to 100 nM; IC50 (AGS cells): 1 to 100 nM

What does the source list for `C#Cc1c(F)ccc2cc(O)cc(-c3ncc4c(N5CC6CCC(C5)N6C(=O)C(F)(F)F)nc(OC[C@]56CCCN5C[C@@H](F)C6)nc4c3F)c12` [drawing 112]?
IC50 (A427 cells): 1000 to 10000 nM; IC50 (AGS cells): 1 to 100 nM

For `C#Cc1c(F)ccc2cc(O)cc(-c3ncc4c(N5CC6CCC(C5)N6C(=O)C(F)(F)F)nc(OCC5(CN6CCC(F)CC6)CC5)nc4c3F)c12` [drawing 110], which IC50 (A427 cells) is on record?
The IC50 was 1 to 100 nM.

What about the IC50 (KRAS(G12D)-SOS1) of the same molecule?
Its IC50 is 1 to 100 nM.

What about the IC50 (AGS cells) of the same molecule?
The IC50 was 1 to 100 nM.

For `C#Cc1c(F)ccc2cc(O)cc(-c3ncc4c(N5CC6CCC(C5)N6C(=O)C(F)(F)F)nc(OC[C@]56CCCN5C[C@@H](F)C6)nc4c3F)c12` [drawing 118], which bioavailability [1] is on record?
Its bioavailability is 15.8%.

Which bioavailability [1] does the source give for `C#Cc1c(F)ccc2cc(O)cc(-c3ncc4c(N5CC6CCC(C5)N6C(=O)C(F)(F)F)nc(OCC5(CN6CCC(F)CC6)CC5)nc4c3F)c12` [drawing 116] here?
Its bioavailability is 12.4%.

Which bioavailability [1] does the source give for `C#Cc1c(F)ccc2cc(O)cc(-c3ncc4c(N5CC6CCC(C5)N6)nc(OCC5(CN6CCC(F)CC6)CC5)nc4c3F)c12` [drawing 117] here?
The bioavailability was 0.82%.

For `C#Cc1c(F)ccc2cc(O)cc(-c3ncc4c(N5CC6CCC(C5)N6)nc(OCC5(CN6CC7CC7C6)CC5)nc4c3F)c12` (stereo not drawn) [drawing 121], which bioavailability [1] is on record?
Its bioavailability is 0.47%.

With `C#Cc1c(F)ccc2cc(O)cc(-c3ncc4c(N5CC6CCC(C5)N6)nc(OC[C@]56CCCN5C[C@@H](F)C6)nc4c3F)c12` as the molecule, how does the bioavailability [1] read?
The bioavailability was 0.45%.

With `C#Cc1c(F)ccc2cc(O)cc(-c3ncc4c(N5CC6CCC(C5)N6C(=O)C(F)(F)F)nc(OCC5(CN6CC7CC7C6)CC5)nc4c3F)c12` (stereo not drawn) [drawing 120] as the molecule, how does the bioavailability (in vivo) read?
The bioavailability was 17.4%.

With `C#Cc1c(F)ccc2cc(O)cc(-c3ncc4c(N5CC6CCC(C5)N6)nc(OCC5(CN6CC7CC7C6)CC5)nc4c3F)c12` (stereo not drawn) [drawing 115] as the molecule, how does the IC50 (A427 cells) read?
The IC50 was 1 to 100 nM.

And the IC50 (KRAS(G12D)-SOS1)?
Its IC50 is 1 to 100 nM.

What about the IC50 (AGS cells) of the same molecule?
Its IC50 is 1 to 100 nM.

What does the source list for `C#Cc1c(F)ccc2cc(O)cc(-c3ncc4c(N5CC6CCC(C5)N6C(=O)C(F)(F)F)nc(OCC5(CN6CC7CC7C6)CC5)nc4c3F)c12` (stereo not drawn) [drawing 114]?
IC50 (A427 cells): 1000 to 10000 nM; IC50 (AGS cells): 1 to 100 nM
